According to patent US3985875A, “ω-(N-acylamino)alkylphosphoryl ethanolamines, pharmaceutical compositions containing them, and their uses” (Dainippon Pharmaceutical Co., Ltd., priority 1974, dated 1976):

Legend:
[1] = test system: plasma cholesterol level; assay: Cholesterol-lowering activity in rats (modified Greenberg method); assay type: in vivo, rat; settings: 100 mg/Kg oral once a day, 5 consecutive days
Experimental: The effect of each of the test compounds on the plasma cholesterol level was examined in rats according to a slightly modified form of the C. M. Greenberg et al. method described in Am. J. Physiol., Vol. 202 (1961), p. 732. Rats were treated once a day with a 100 mg/Kg oral dose for 5 consecutive days instead of 7 days.

[2] = test system: renal hypertensive rats; assay: Antihypertensive activity in renal hypertensive rats, i.m. (Table 3); assay type: in vivo, rat; settings: 30 mg/kg/day i.m.
Experimental: (§1) An aqueous solution or suspension in peanut oil of each test compound as administered intramuscularly (i.m.) or orally (p.o.) at a dose of 30 to 100 mg/kg (body weight)/day once every morning over the period of 6 to 7 days.
(§2) The blood pressure of each rat was measured daily before and 5 hours after each administration. Furthermore, the blood pressure was measured every morning after drug withdrawal over a period of 3 to 6 days.
(§3) Test compounds (1)-(4) decreased the blood pressure of renal hypertensive rats with a dose of 30 mg/kg/day i.m.. […] The antihypertensive rats with a dose of 100 mg/kg/day p.o..

[3] = target: T1, Renin (Homo sapiens, UniProt P00797); assay: Renin-inhibitory activity, Method I (inhibition of Angiotensin I formation, RIA); assay type: biochemical; settings: Table 2; 37°C, 4 hours, 1.25 mg/ml; read-out: Rate of inhibiting the formation of Angiotensin I determined by Method I
T1 sequence (P00797 67-406): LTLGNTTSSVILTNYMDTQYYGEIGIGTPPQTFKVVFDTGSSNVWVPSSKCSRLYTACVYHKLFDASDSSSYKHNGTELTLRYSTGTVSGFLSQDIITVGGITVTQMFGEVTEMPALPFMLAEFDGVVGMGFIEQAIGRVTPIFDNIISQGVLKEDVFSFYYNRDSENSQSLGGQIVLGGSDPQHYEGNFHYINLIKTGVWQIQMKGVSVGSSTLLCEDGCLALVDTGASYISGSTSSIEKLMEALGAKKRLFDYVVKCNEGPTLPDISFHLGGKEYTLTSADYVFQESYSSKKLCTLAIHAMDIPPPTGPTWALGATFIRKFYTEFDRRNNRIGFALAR
Experimental: Renin (see E. Haas et al. Circulation Research, Vol. 19, p. 739, 1966 and Vol. 31, p. 65, 1972) was incubated in Angiotensinogen at 37° C. for 2 to 6 hours. Similarly, renin was incubated under the same conditions in the presence of 0.313 to 2.5 mg/ml. of each of the test compounds listed above. The amount of Angiotensin I was measured by radioimmunoassay (RIA) (E. Haber et al., J. Clin. Endocrinol., Vol. 29, p. 1349, 1969), and made the renin activity.
(§4) The results are shown in Table 1 (the rate of inhibiting the formation of Angiotensin I, as determined by Method I, when the plasma was incubated at 37° C. for 2, 4 and 6 hours respectively), and Table 2 (the rate of inhibiting the formation of Angiotensin I when the plasma was incubated at 37° C. for 4 hours, with the compound concentration of 1.25 mg/ml.)

[4] = target: T2, High renin plasma (Canis lupus familiaris, UniProt Q6DYE7); assay: Renin-inhibitory activity, Method II (high renin plasma of dog, inhibition of Angiotensin I formation); assay type: biochemical; settings: Table 2; 37°C, 4 hours, 1.25 mg/ml; read-out: Rate of inhibiting the formation of Angiotensin I determined by Method II
T2 construct: High renin plasma prepared by constriction of the renal artery of a dog anesthetized with Nembutal; from tissue; host or cells: plasma of a dog with constricted renal artery
T2 sequence (Q6DYE7 66-403): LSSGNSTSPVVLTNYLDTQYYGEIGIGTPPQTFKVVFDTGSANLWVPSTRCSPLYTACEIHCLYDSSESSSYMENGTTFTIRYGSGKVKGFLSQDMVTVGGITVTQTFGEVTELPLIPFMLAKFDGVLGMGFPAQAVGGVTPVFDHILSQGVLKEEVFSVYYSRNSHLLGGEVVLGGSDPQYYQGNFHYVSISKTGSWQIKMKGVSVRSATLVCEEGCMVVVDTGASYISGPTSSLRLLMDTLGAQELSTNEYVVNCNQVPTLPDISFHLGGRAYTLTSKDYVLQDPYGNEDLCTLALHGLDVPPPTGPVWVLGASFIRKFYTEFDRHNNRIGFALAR
Experimental: High renin plasma prepared by constriction of the renal artery of a dog anesthetized with Nembutal (the plasma which when incubated at 37°40 C. for 6 hours, yields 30 to […]. of Angiotensin I) was incubated at 37° C. for 2 to 6 hours in the same way as in Method I, and also under the same conditions in the presence of 1.25 mg/ml. of each of the test compounds.
as §4

[5] = test system: renal hypertensive rats; assay: Antihypertensive activity in rats, p.o. (Table 4); assay type: in vivo, rat; settings: 100 mg/kg/day p.o.
Experimental: as §1, §2, §3

[6] = 1st day, 0 h (immediately before administration)
[7] = 1st day, 5 hours after administration
[8] = 2nd day, 5 hours after administration
[9] = 3rd day, 0 h (immediately before administration)
[10] = 3rd day, 5 hours after administration
[11] = 4th day, 0 h (immediately before administration)
[12] = 4th day, 5 hours after administration
[13] = 5th day, 0 h (immediately before administration)
[14] = 5th day, 5 hours after administration
[15] = 6th day, 0 h (immediately before administration)
[16] = 6th day, 5 hours after administration
[17] = 2nd day, 0 h (immediately before administration)

`CCCCCC=CCC=CCC=CCC=CCCCC(=O)OCC(COP(=O)(O)OCCN)OC(=O)CCCCCCCCCCCCCCCCC` (racemic) [(a), rac-2-Octadecanoyl-3-(eicosa-5,8,11,14-tetraenoyl)glycero-1-phosphoryl ethanolamine, reference compound] was tested, and the Cholesterol-lowering activity [1] was 0%, the “Changes of blood pressure after drug withdrawal” value (“Changes … after drug withdrawal” for short) ([2]; 1st day after withdrawal) was -14 mmHg and the “Changes of blood pressure” value [2, 6] was 0 mmHg. For the same molecule, the “Changes of blood pressure” value [2, 7] was -26 mmHg, the “Changes … after drug withdrawal” value ([2]; 2nd day after withdrawal) was -3 mmHg and the “Changes of blood pressure” value [2, 8] was -35 mmHg. For the same molecule, the “Changes … after drug withdrawal” value ([2]; 3rd day after withdrawal) was -1 mmHg, the “Changes of blood pressure” value [2, 9] was -5 mmHg and the “Changes of blood pressure” value [2, 10] was -29 mmHg. For the same molecule, the “Changes of blood pressure” value [2, 11] was -5 mmHg, the “Changes of blood pressure” value [2, 12] was -34 mmHg and the “Changes of blood pressure” value [2, 13] was -13 mmHg. For the same molecule, the “Changes of blood pressure” value [2, 14] was -33 mmHg, the “Changes of blood pressure” value [2, 15] was -13 mmHg and the “Changes of blood pressure” value [2, 16] was -43 mmHg. For the same molecule, the inhibition at 1250 µg/mL [3] was less than 10%, the inhibition at 1250 µg/mL [4] was 25% and the “antihypertensive effect, oral administration (in words)” value [5] was “did not show such an effect”. For the same molecule, the “Changes of blood pressure” value [5, 6] was 0 mmHg, the “Changes of blood pressure” value [5, 7] was “+2 mmHg” and the “Changes of blood pressure” value [5, 17] was “+1 mmHg”. For the same molecule, the “Changes of blood pressure” value [5, 8] was “+5 mmHg”, the “Changes of blood pressure” value [5, 9] was “+2 mmHg” and the “Changes of blood pressure” value [5, 10] was -2 mmHg. The “Changes of blood pressure” value [5, 11] was “+1 mmHg”, the “Changes of blood pressure” value [5, 13] was “+2 mmHg” and the “Changes of blood pressure” value [5, 14] was “+2 mmHg”. For the same molecule, the “Changes of blood pressure” value [5, 15] was “+1 mmHg”, the “Changes of blood pressure” value ([5]; 7th day, 0 h (immediately before administration)) was “+1 mmHg” and the “Changes of blood pressure” value ([5]; 7th day, 5 hours after administration) was “+2 mmHg”.

In the case of `CCC=CCC=CCC=CCCCCCCCC(=O)OCC(COP(=O)(O)OCCN)OC(=O)CCCCCCCCCCCCCCCCC` (racemic) [(b), rac-2-Octadecanoyl-3-(octadeca-9,12,15-trienoyl)glycero-1-phosphoryl ethanolamine, reference compound], the Cholesterol-lowering activity [1] was 0%, the “Changes … after drug withdrawal” value ([2]; 1st day after withdrawal) was -11 mmHg and the “Changes of blood pressure” value [2, 6] was 0 mmHg. The “Changes of blood pressure” value [2, 7] was -32 mmHg, the “Changes … after drug withdrawal” value ([2]; 2nd day after withdrawal) was -2 mmHg and the “Changes of blood pressure” value [2, 17] was -4 mmHg. The “Changes of blood pressure” value [2, 8] was -25 mmHg, the “Changes … after drug withdrawal” value ([2]; 3rd day after withdrawal) was -1 mmHg and the “Changes of blood pressure” value [2, 9] was -8 mmHg. For the same molecule, the “Changes of blood pressure” value [2, 10] was -34 mmHg, the “Changes of blood pressure” value [2, 11] was -7 mmHg and the “Changes of blood pressure” value [2, 12] was -39 mmHg. For the same molecule, the “Changes of blood pressure” value [2, 13] was -8 mmHg, the “Changes of blood pressure” value [2, 14] was -44 mmHg and the “Changes of blood pressure” value [2, 15] was -10 mmHg. The “Changes of blood pressure” value [2, 16] was -47 mmHg, the inhibition at 1250 µg/mL [3] was less than 10% and the inhibition at 1250 µg/mL [4] was 25%.
